Converted amounts (≈) assume the structure as drawn.
Assays:
[1] = tested on: Agrobacterium tumefaciens; experiment: Inhibition of growth of crown gall tumors in Agrobacterium tumefaciens with tumor-inducing plasmid on potato disk; format: functional
[2] = Toxicity in Artemia salina; format: organism-based; details: in vivo
A549 = experiment: Cytotoxicity against human A549 cells; format: functional, cell-based
HT-29 = experiment: Cytotoxicity against human HT29 cells; format: functional, cell-based
MCF7 = experiment: Cytotoxicity against human MCF7 cells; format: functional, cell-based

| SMILES | inhibition (INH) [1] [%] | LC50 [2] [µg/mL] | IC50 (A549) [µg/mL] | IC50 (HT-29) [µg/mL] | IC50 (MCF7) [µg/mL] |
| --- | --- | --- | --- | --- | --- |
| CCCCCCCCCCCCCC[C@H](O)[C@@H]1CC[C@H]([C@H](O)CC[C@H](O)CCCCC[C@@H](O)CC2=C[C@H](C)OC2=O)O1 | 47 | 5.2 (≈ 8.71 µM) | 0.13 (≈ 0.218 µM) | 0.0053 (≈ 0.00888 µM) | 1.05 (≈ 1.76 µM) |
| CCCCCCCCCCCC[C@@H]1OCO[C@H](CCC[C@H](O)CCCCC[C@@H](O)CC2=C[C@H](C)OC2=O)[C@@H]2CC[C@@H]1O2 | 22 | – | 0.079 (≈ 0.133 µM) | 2.1 (≈ 3.53 µM) | 2.6 (≈ 4.37 µM) |
| CCCCCCCCCCCC[C@H](O)[C@@H]1CC[C@H]([C@H](O)CCCCC(=O)CCCCC[C@@H](O)CC2=C[C@H](C)OC2=O)O1 | 32 | 1.8 (≈ 3.03 µM) | 0.35 (≈ 0.588 µM) | 0.0009 (≈ 0.00151 µM) | 0.29 (≈ 0.487 µM) |
| CCCCCCCCCCCC[C@H](O)[C@@H]1CC[C@H]([C@H](O)CCCC[C@H](O)CCCCC[C@@H](O)CC2=C[C@H](C)OC2=O)O1 | 28 | 2.3 (≈ 3.85 µM) | 0.23 (≈ 0.385 µM) | – | 1.18 (≈ 1.98 µM) |
| CCCCCCCCCCCCCC[C@H](O)[C@@H]1CC[C@H]([C@H]2CC[C@@H](CCCCC[C@@H](O)CC3=C[C@H](C)OC3=O)OCO2)O1 | 21 | – | 0.53 (≈ 0.87 µM) | 2.6 (≈ 4.27 µM) | 0.52 (≈ 0.854 µM) |
| CCCCCCCCCCCC[C@@H](O)[C@H]1CC[C@H]([C@H]2CC[C@H](CCCCCCC[C@@H](O)CC3=C[C@H](C)OC3=O)OCO2)O1 [ARIANACIN FORMAL] | 28 | – | 0.02 (≈ 0.0328 µM) | 1 (≈ 1.64 µM) | 8.5 (≈ 14 µM) |
| CCCCCCCCCCCC[C@@H](O)[C@H]1CC[C@H]([C@H](O)CC[C@@H](O)CCCCCCC[C@@H](O)CC2=C[C@H](C)OC2=O)O1 [ARIANACIN] | 26 | 7.1 (≈ 11.9 µM) | 0.0047 (≈ 0.00787 µM) | 4.4 (≈ 7.37 µM) | 0.4 (≈ 0.67 µM) |
| COc1cccc2c1C(=O)c1c(O)c3c(c(O)c1C2=O)C[C@@](O)(C(=O)CO)C[C@@H]3O[C@H]1C[C@H](N)[C@H](O)[C@H](C)O1 [DOXORUBICIN] | – | – | 0.0004 (≈ 0.000736 µM) | 0.00051 (≈ 0.000938 µM) | – |
| CCCCCCCCCCCCCC[C@@H](O)[C@H]1CC[C@H]([C@H]2CC[C@@H](CCCCC[C@@H](O)CC3=C[C@H](C)OC3=O)OCO2)O1 [GONIOTHALAMICIN FORMAL] | – | – | 0.025 (≈ 0.0411 µM) | 1.13 (≈ 1.86 µM) | 1.03 (≈ 1.69 µM) |
| CCCCCCCCCCCCCC[C@@H](O)[C@H]1CC[C@H]([C@H](O)CC[C@H](O)CCCCC[C@@H](O)CC2=C[C@H](C)OC2=O)O1 [GONIOTHALAMICIN] | – | 0.6 (≈ 1.01 µM) | 0.008 (≈ 0.0134 µM) | 0.0011 (≈ 0.00184 µM) | 0.057 (≈ 0.0955 µM) |
| CCCCCCCCCCCC[C@@H](O)[C@H]1CC[C@H]([C@H]2CC[C@@H](CCCCCCC[C@@H](O)CC3=C[C@H](C)OC3=O)OCO2)O1 [JAVORICIN FORMAL] | 31 | – | 0.02 (≈ 0.0328 µM) | 5.6 (≈ 9.2 µM) | 2.9 (≈ 4.76 µM) |
| CCCCCCCCCCCC[C@@H](O)[C@H]1CC[C@H]([C@H](O)CC[C@H](O)CCCCCCC[C@@H](O)CC2=C[C@H](C)OC2=O)O1 [JAVORICIN] | 47 | 4.9 (≈ 8.21 µM) | 0.017 (≈ 0.0285 µM) | 1.8 (≈ 3.02 µM) | 0.23 (≈ 0.385 µM) |
